Here are results for four compounds from patent publication US20100022614A1, “PHARMACEUTICAL COMPOSITION FOR EXTERNAL APPLICATION AND ADHESIVE SKIN PATCH” (priority 2006, published 2010).

What all share (format): physicochemical
A short description of data set [1]: Drug solubility test (Test Example 1): amount of LOX dissolved in 1 g of additive, visual observation. The procedure: The amount of dissolution of loxoprofen sodium (LOX) with respect to 1 g of each additive was determined by visual observation.
The nature of data set [2]: Drug stability test (Test Example 4, FIG. 3): loxoprofen/lactic acid with additives, with or without NMP. The note with it: for stability of LOX (in words): NMP added to LOX. The procedure:
By a similar procedure to Test Example 3 except that 1 g of an additive (aspartic acid, isostearic acid, disodium edetate, a carboxyvinyl polymer or polyvinylpyrrolidone) was added to a mixed solution of 0.1 g of loxoprofen and 5 g of lactic acid, the mass of loxoprofen sodium being present in each solvent system was measured.
In addition, by a similar procedure to Test Example 3 except that 1 g of N-methyl-2-pyrrolidone, and 1 g of an additive (aspartic acid, isostearic acid, disodium edetate, the carboxyvinyl polymer or polyvinylpyrrolidone) were further mixed, the mass of loxoprofen sodium being present in each solvent system was measured. The results are shown in FIG. 3 in terms of the ratio of each measurement with respect to the initial value.

The nature of data set [3]: Drug stability test (Test Example 5, FIG. 4): loxoprofen sodium or felbinac in lactic acid with NMP. The note with it: 0.1 g drug in 5 g lactic acid with 1 g or 10 g NMP; autoclaving 120° C. The protocol: By a similar procedure to Test Example 3 except that either 1 g or 10 g of N-methyl-2-pyrrolidone was further mixed with a mixed solution of 0.1 g of loxoprofen sodium or felbinac and 5 g of lactic acid, the mass of the drug being present in each solvent system was measured.

The nature of data set [4]: Drug stability test (Test Example 3): loxoprofen sodium in solvent systems, autoclaving at 120° C. The conditions noted are these: for Loxoprofen sodium content (%) (vs. initial value): autoclaving 120° C. The procedure:
To each solvent was added 0.1 g of loxoprofen sodium, and the mixture was stirred at 25° C. overnight. The stirred mixture was filtrated to obtain a filtrate for use as a sample solution. This sample solution was subjected to an autoclaving treatment at 120° C., and the mass of loxoprofen sodium being present in each solvent system was measured at time 0 (initial value), 2 hrs later, 4 hrs later, and 6 hrs later. The results are shown in FIG. 2 and Table 3 in terms of the ratio of each measurement with respect to the initial value. The measurement procedure was similar to Test Example 2.

Data set [5] can be described thus: Drug stability test (Test Example 2): loxoprofen sodium in solvent systems left at 60° C., HPLC. The note with it: for Loxoprofen sodium content (%) (vs. initial value): 60° C. The procedure: To each solvent was added 0.1 g of loxoprofen sodium, and the mixture was stirred at 25° C. overnight. The stirred mixture was filtrated to obtain a filtrate for use as a sample solution, and this sample solution was left to stand at 60° C. Thereafter, the mass of loxoprofen sodium being present in each solvent system was measured with high performance liquid chromatography (HPLC) 0 months later (initial value), 0.5 months later, and 1.0 month later. The results are shown in FIG. 1 and Table 2 in terms of the ratio of each measurement with respect to the initial value.

Data set [6] in a line: Drug stability test (Test Example 6, FIG. 5): diclofenac sodium in lactic acid or glycerin with NMP. The conditions noted are these: autoclaving 120° C. The protocol:
By a similar procedure to Test Example 5 except that a mixed solution of 0.1 g of diclofenac sodium and 5 g of lactic acid or glycerin was used, the mass of the drug being present in each solvent system was measured.

Data set [7] in a line: Drug stability test (Test Example 7, FIG. 6): tulobuterol in acetic acid with NMP. The note with it: 0.1 g drug in 5 g acetic acid with 1 g or 10 g NMP; autoclaving 120° C. The procedure: By a similar procedure to Test Example 5 except that a mixed solution of 0.1 g of tulobuterol and 5 g of acetic acid was used, the mass of the drug being present in each solvent system was measured.

As for `CC(C(=O)O)c1ccc(CC2CCCC2=O)cc1` (centres unmarked) [LOX, loxoprofen sodium], the “amount of dissolution of loxoprofen sodium (in words)” value in data set [1] (lactic acid and N-methyl-2-pyrrolidone used in combination) was “markedly great”; in data set [1] (lactic acid or N-methyl-2-pyrrolidone used alone, or other composition) it was “significantly small”. In addition, the “Amount of dissolved LOX” value is 0.1 g in data set [1] (per 1 g of additive: 10% Citric anhydride + NMP, mixing ratio 1:10); 0.1 g in data set [1] (per 1 g of additive: 20% Citric anhydride + NMP, mixing ratio 1:5); 0.25 g in data set [1] (per 1 g of additive: 89% Phosphoric acid); 0 g in data set [1] (per 1 g of additive: Behenic acid + NMP, mixing ratio 1:1); 0 g in data set [1] (per 1 g of additive: Cetyl lactate + NMP, mixing ratio 1:4); 0 g in data set [1] (per 1 g of additive: Crotamiton). For the same compound, the “Amount of dissolved LOX” value was found to be 0 g in data set [1] (per 1 g of additive: Isostearic acid + NMP, mixing ratio 1:1); 0 g in data set [1] (per 1 g of additive: L-menthol + NMP, mixing ratio 1:1); 0.25 g in data set [1] (per 1 g of additive: Lactic acid); 1.5 g in data set [1] (per 1 g of additive: Lactic acid + NMP, mixing ratio 1:2); 0 g in data set [1] (per 1 g of additive: Malic acid + NMP, mixing ratio 1:4); 0 g in data set [1] (per 1 g of additive: Myristic acid + NMP, mixing ratio 1:10). For the same compound, the “Amount of dissolved LOX” value in data set [1] (per 1 g of additive: NMP) is listed as 0 g; in data set [1] (per 1 g of additive: Oleyl alcohol) it was 0 g; in data set [1] (per 1 g of additive: Peppermint oil), 0 g; in data set [1] (per 1 g of additive: Phosphoric acid (89%) + NMP, mixing ratio 1:2), 0 g; in data set [1] (per 1 g of additive: Polyethylene glycol 400), 0.25 g; in data set [1] (per 1 g of additive: Stearic acid + NMP, mixing ratio 1:1), 0 g. The “Amount of dissolved LOX” value in data set [1] (per 1 g of additive: Tartaric acid + NMP, mixing ratio 1:2) stood at 0 g; in data set [1] (per 1 g of additive: Triacetin) it was 0 g. The “stability of LOX (in words)” value in data set [2] (lactic acid and adipic acid) was “favorable stability”; in data set [2] (lactic acid and benzoic acid), “favorable stability”. Further, the “content of LOX versus control group without the additive (FIG. 3)” value in data set [2] (lactic acid 5 g + 1 g additive having a carboxylic acid group (aspartic acid, isostearic acid, disodium edetate, carboxyvinyl polymer), irrespective of the presence of NMP, 120° C.) is “almost a similar level to the LOX content in the control group”. The “content of LOX versus control group (FIG. 3)” value in data set [2] (lactic acid 5 g + 1 g polyvinylpyrrolidone, irrespective of the presence of NMP, 120° C.) is given as “increased to a level higher than the content of LOX in the control group”. In addition, the “stability of the drug (FIG. 4, in words)” value in data set [3] is on record as “significantly improved”. Moreover, the “Loxoprofen sodium content (%) (vs. initial value)” value (from here on “Loxoprofen sodium content (%)”) in data set [4] (solvent system Lactic acid 5 g + NMP0.1 g, 2 hrs) was 96.0%; in data set [4] (solvent system Lactic acid 5 g + NMP0.1 g, 4 hrs) it was 90.7%; in data set [4] (solvent system Lactic acid 5 g + NMP0.1 g, 6 hrs) it was 87.4%; in data set [4] (solvent system Lactic acid 5 g + NMP1.0 g, 2 hrs) it was 98.0%; in data set [4] (solvent system Lactic acid 5 g + NMP1.0 g, 4 hrs) it was 94.2%; in data set [4] (solvent system Lactic acid 5 g + NMP1.0 g, 6 hrs), 91.9%. The “Loxoprofen sodium content (%)” value is on record as 99.4% in data set [4] (solvent system Lactic acid 5 g + NMP10.0 g, 2 hrs); 99.8% in data set [4] (solvent system Lactic acid 5 g + NMP10.0 g, 4 hrs); 99.6% in data set [4] (solvent system Lactic acid 5 g + NMP10.0 g, 6 hrs); 94.8% in data set [4] (solvent system Lactic acid 5 g, 2 hrs); 90.3% in data set [4] (solvent system Lactic acid 5 g, 4 hrs); 86.8% in data set [4] (solvent system Lactic acid 5 g, 6 hrs). In addition, the “Loxoprofen sodium content (%)” value in data set [5] (solvent system Conc. glycerin 5 g, 0.5 months later) is 87.2%; in data set [5] (solvent system Conc. glycerin 5 g, 1.0 month later) it was 82.4%; in data set [5] (solvent system Lactic acid 5 g + NMP0.1 g, 0.5 months later), 88.2%; in data set [5] (solvent system Lactic acid 5 g + NMP0.1 g, 1.0 month later), 82.7%; in data set [5] (solvent system Lactic acid 5 g + NMP1.0 g, 0.5 months later) it was 91.3%; in data set [5] (solvent system Lactic acid 5 g + NMP1.0 g, 1.0 month later), 85.8%. In addition, the “Loxoprofen sodium content (%)” value is 99.8% in data set [5] (solvent system Lactic acid 5 g + NMP10.0 g, 0.5 months later); 99.4% in data set [5] (solvent system Lactic acid 5 g + NMP10.0 g, 1.0 month later); 83.1% in data set [5] (solvent system Lactic acid 5 g, 0.5 months later); 79.9% in data set [5] (solvent system Lactic acid 5 g, 1.0 month later); 83.2% in data set [5] (solvent system Peppermint oil 5 g, 0.5 months later); 77.7% in data set [5] (solvent system Peppermint oil 5 g, 1.0 month later). Besides, the “Loxoprofen sodium content (%)” value in data set [5] (solvent system “Polysorbate 80 g” 5 g, 0.5 months later) is given as 83.5%; in data set [5] (solvent system “Polysorbate 80 g” 5 g, 1.0 month later) it was 69.1%. Moreover, the “time dependent lowering of the content of loxoprofen sodium (in words)” value is recorded as “markedly suppressed” in data set [4] (solvent system including lactic acid and N-methyl-2-pyrrolidone (Tables 2 to 3, FIGS. 1 to 2)); “greatly exhibited” in data set [5] (solvent system of conc. glycerin, “polysorbate 80”, mentha oil or lactic acid).

As to `O=C(O)Cc1ccccc1Nc1c(Cl)cccc1Cl` [diclofenac sodium], in data set [6] (0.1 g drug in 5 g glycerin with 1 g or 10 g NMP), the “reduction of stability caused by blending glycerin, effect of adding NMP (FIG. 5)” value is listed as “compensated”. Further, the “reduction of stability caused by blending lactic acid, effect of adding NMP (FIG. 5)” value in data set [6] (0.1 g drug in 5 g lactic acid with 1 g or 10 g NMP) is listed as “greatly compensated”.

With `O=C(O)Cc1ccc(-c2ccccc2)cc1` [felbinac], in data set [3], the “stability of the drug (FIG. 4, in words)” value is on record as “significantly improved”.

`CC(C)(C)NCC(O)c1ccccc1Cl` (centres unmarked) [tulobuterol]: the “stability of the drug (FIG. 6, in words)” value in data set [7] was “greatly improves”.
